Measured values from US20200208112A1, “Method of Selecting Genetically Modified Hematopoietic Stem Cells” (priority 2017, published 2020).

How the values were obtained:
NIH3T3 cells = experiment: Puromycin selection and ganciclovir sensitivity of LTGCPU7-transduced NIH3T3 cells; assay type: cell-based
Description: a. NIH3T3 cells were mock-transduced (NT) or transduced with LTGCPU7, and LTGCPU7-transduced cells were selected with puromycin. Equivalent numbers of mock- and LTGCPU7-transduced/selected cells were treated with GCV at the indicated concentration. Living cells were counted three days later.
(§1) (Beckman Coulter). Where indicated, purification was performed with a Mustang Q anion exchange membrane cartridge (Pall Corporation), as previously described (Kutner et al., Nature protocols, 2009, 4, 495-505) and a 40K ZebaSpin desalting column (ThermoFisher Scientific), according to the manufacturer's instructions, with concentration by ultracentrifugation. Infectious titers were determined by qPCR, as previously described (Payen, E. et al., Methods in enzymology, 2012, 507, 109-124). When indicated, transduced NIH3T3 cells were selected on puromycin and treated with various concentrations of ganciclovir (Cymevan, Roche). Adult and cord blood CD34^+ cells were cultured in SCGM (CellGenix) and X-VIVO 20 (Lonza) medium, respectively, and transduced as previously described (Negre, O. et al., Current gene therapy, 2015, 15, 64-81). Cells were selected 48 hours after transduction, on puromycin hydrochloride (5 μg/mL, Sigma-Aldrich).

CB CD34+ cells = experiment: Conditional suicide in vitro: ganciclovir treatment of CB CD34+ cells, erythroid progenitor assay; assay type: cell-based, human
Description: (§2) a.b.c.d. Human cord blood CD34^+ cells were transduced with LTGCPU7 and treated with puromycin and cyclosporine A for 24 hours. Non-transduced (NT) and LTGCPU7-transduced cells were then treated with ganciclovir (GCV) for three days, counted (a) and plated on semi-solid medium for the evaluation of erythroid progenitor cell eradication (b). Selected cells were also injected into 16 NSG mice, half of which were treated with GCV four weeks later (50 mg/kg, 6 days per week, for 2 weeks). Human chimerism (c) and VCN in human CD45^+ cells (d) were determined 2 months later.
(§3) CB CD34+ cells were transduced with LTGCPU7, they were treated with ganciclovir for 72 hours, and plated on methylcellulose. The toxicity of ganciclovir was limited in non-transduced cells (FIG. 8a and FIG. 8b) and the number of transduced erythroid progenitors decreased by a factor of 200 and 1000 in the presence of 1 μM and 5 μM ganciclovir respectively (FIG. 8b). The transduced cells were injected into 16 NSG mice. Four weeks later, eight of the mice received ganciclovir. […] The absence of hCD45+ cells in mice with levels below the limit of sensitivity (<0.01%) was confirmed by the lack of enrichment observed on hCD45 cell sorting.

[1] = system: transduced human hCD45+ cells; experiment: Conditional suicide in vivo: ganciclovir treatment of NSG mice carrying transduced human cells; settings: treated group, 50 mg/kg 6 days per week for 2 weeks, two months later
Description: as §2, §3

[2] = system: mobilized peripheral blood (mPB) CD34+ cells; experiment: Puromycin selection of transduced mobilized peripheral blood CD34+ cells (mean VCN, progenitor assay); assay type: cell-based, human
Description: as §1
(§4) Vector copy numbers were determined by the comparative Ct method and set at integer values. Colony-forming cells with VCN values between 0.5 and 1.5 were considered to have a VCN of 1; those with VCN values between 1.5 and 2.5 were considered to have a VCN of 2, and so on. LTC-IC cells were analyzed as previously described (Payen, E. et al., Methods in enzymology, 2012, 507, 109-124). The percentage of vector-modified LTC-IC during the readout phase of the assay was determined, by subjecting no more than one clonogenic myeloid colony per well to qPCR-based scoring to ensure that only independent LTC-ICs were analyzed.
The LTGCPU1 vector expressing the puromycin N-acetyl-transferase (PAC) gene under the human PGK promoter is derived from a β-globin LV that has been tested in an approved human trial for the gene therapy of the beta-hemoglobinopathies (Cavazzana Calvo et al., Nature, 2010; 467, 318-322; FIG. 1). LTGCPU1 transduced bone marrow (BM) CD34^+ cells were transferred onto selective medium containing 10 μg/mL puromycin at 24 or 48 hours after transduction. They were incubated for 24 hours, and the frequency of functional hematopoietic progenitor cell subsets was evaluated. The absolute numbers of vector-bearing erythroid progenitors (BFU-Es) were similar in the presence and absence of treatment, regardless of the time allowed for PAC gene expression. However, incubation for two days was required for the myeloid (CFU-GMs) and long-term progenitor cells (LTC-ICs) to acquire full resistance to the antibiotic (FIG. 2a). Mobilized peripheral blood (mPB) CD34^+ cells were also transduced with LTGCPU1 and treated with puromycin. The mean vector copy number (VCN) per cell was determined for pooled cells and compared with the theoretical VCN obtained in optimal conditions (eradication of all non-transduced cells and survival of all vector-bearing cells). In non-selective conditions, the mean VCN was 0.17. Based on the assumption that vector integration obeys Poisson statistics (see below), optimal selection should give rise to 1.08 copies of the vector per cell. Mean VCN was 1.6 when cells were selected 24 hours after transduction, and close to the expected value (1.08) if puromycin treatment began two or three days after transduction (FIG. 2b). […] With this optimized protocol, the proportion of vector-bearing progenitors (myeloid and erythroid) increased from 10-20% to more than 90% following treatment with 5 μg/mL puromycin (FIG. 2c).

[3] = system: bone marrow (BM) CD34+ cells; experiment: Puromycin selection of LTGCPU1-transduced bone marrow CD34+ cells (progenitor and LTC-IC assays); assay type: cell-based, human; settings: 10 μg/mL puromycin for 24 hours, 24 or 48 hours after transduction
Description: as §1
Vector copy numbers were determined by the comparative Ct method and set at integer values. […] LTC-IC cells were analyzed as previously described (Payen, E. et al., Methods in enzymology, 2012, 507, 109-124). The percentage of vector-modified LTC-IC during the readout phase of the assay was determined, by subjecting no more than one clonogenic myeloid colony per well to qPCR-based scoring to ensure that only independent LTC-ICs were analyzed. […]

cord blood CD34+ cells = experiment: Selection of LTGCPU7-transduced cord blood CD34+ cells, progenitor assay on methylcellulose; assay type: cell-based, human
Description: as §1, §4

[4] = system: SCID-repopulating cells (SRC); experiment: Transplantation of transduced and selected cord blood CD34+ cells into NSG mice (SRC selection); settings: puromycin alone, three months after transplantation
Description: NOD.Cg-Prkdc^scid Il2rg^tmlWjl/SzJ (NOD-scid IL2rgamma^null abbreviated to NSG) mice were obtained from Charles River Laboratories (Saint Germain sur l'Arbresle, France) and kept in individually ventilated cages supplied with sterile food and autoclaved water. […] Experimental protocols were approved by the ethics committee for animal experimentation of the CEA, under notification number 12-033. Three- to four-month-old female recipients (at least 6 mice per group) were sublethally irradiated with a dose of 2.8 Gy (1 Gy/min) to the whole body (TBI). Then, 10^4 to 10^5 transduced and selected human cells were injected intravenously into the mice on the day after irradiation. […]
For progenitor assays performed immediately after in vitro transduction and selection, 500 to 1000 cells were plated in methylcellulose based-medium already supplemented with human cytokines (H4434, Stemcell Technologies). […] The colonies were counted and collected after incubation for 11-14 days, washed with PBS and stored. […]
Non-viable cells were excluded by Sytox Blue nucleic acid staining (ThermoFisher Scientific) or with 7AAD (eBioscience). Data were acquired with MACSQUANT instrument (Miltenyi) and analyzed with FlowJo software (Tree Star, Inc). […]

Compound	sensitivity of LTGCPU7-transduced, puromycin-selected cells to ganciclovir (NIH3T3 cells)	toxicity in non-transduced cells (CB CD34+ cells)	factor of decrease of the number of transduced erythroid progenitors (CB CD34+ cells; 5 μM ganciclovir, 72 hours)	mice in which hCD45+ cells were detected [1]	absolute numbers of transduced progenitors, presence versus absence of puromycin ([2]; LTGCPU1-transduced, optimized protocol)	proportion of vector-bearing progenitors (myeloid and erythroid) ([2]; LTGCPU1-transduced, 5 μg/mL puromycin for 24 hours, 48 hours after transduction)	mean VCN per cell, pooled cells ([2]; LTGCPU1-transduced, puromycin 10 μg/mL, selected 24 hours after transduction)	mean VCN per cell, pooled cells ([2]; LTGCPU1-transduced, puromycin treatment began two or three days after transduction)	percentage of transduced progenitor cells in vitro ([2]; mPB cells, after selection with puromycin (data not shown)) [%]	mean VCN in puromycin-treated cells ([2]; mPB cells, in vitro)	absolute numbers of vector-bearing erythroid progenitors (BFU-Es), presence versus absence of treatment [3]	selection of LTGCPU7-transduced cord blood progenitors (cord blood CD34+ cells; 5 μg/mL puromycin for 24 hours)	mean VCN in erythroid progenitors, pooled cells from methylcellulose (cord blood CD34+ cells; 5 μg/mL puromycin, absence of MDR1 inhibitors)	mean VCN and percentage of vector-bearing cells in erythroid progenitors versus untreated (cord blood CD34+ cells; puromycin alone)	mean VCN in hCD45+ cells isolated from mice versus absence of treatment [4]
Nc1nc(O)c2ncn(COC(CO)CO)c2n1 [ganciclovir]	sensitive	limited	1000	one of the eight mice											
COc1ccc(C[C@H](N)C(=O)N[C@H]2[C@@H](O)[C@H](n3cnc4c(N(C)C)ncnc43)O[C@@H]2CO)cc1 [puromycin]					similar	more than 90%	1.6	~1.08	100	greater than 1	similar	efficiently selected	≈ 0.5	higher	similar
